Test system: HUVEC TNFa-induced VCAM-1 surface expression, immunofluorescence imaging
Test: suppression of endothelial VCAM-1 upregulation – imaging, high-content imaging, pooled HUVEC, TNFa stimulus (AID 456)

SMILES	IC50 [µM]
CS(=O)(=O)c1ncc(Cl)c(C(=O)Nc2ccc(N3CCOCC3)cc2)n1	6.5
C=CS(=O)(=O)c1ccc(Oc2ccc(S(=O)(=O)C=C)cc2)cc1	1.2
CCN1C(=O)c2cccc3c(NC(=O)c4ccc(S(=O)(=O)N(C)C)cc4)ccc1c23	12.1
Clc1ccc(OCc2nnc(SCCN3CCCCC3)n2Cc2ccco2)cc1	13.9
S=C(NCC1CCCO1)n1nnc2ccccc21 (configuration not stated)	8.83
CN(C)CCCN1c2ccccc2CCc2ccc(Cl)cc21	10.2
O=C1CCn2nc(-c3ccc(Cl)cc3)cc2N1	12.3
O=C(Cn1nc(-c2ccc(Cl)cc2)ccc1=O)NCCCN1CCN(Cc2ccccc2)CC1	16.9
CCOC(=O)c1ccc(N=c2sc(C(=O)OC)cc(=O)n2Cc2ccco2)cc1	4.92
Cc1oc(-c2cccc(Cl)c2)nc1CN1CCC(C(=O)N2CCN(c3ccccc3F)CC2)CC1	8.7
CC(C)C[C@H]1C(=O)N2CCC[C@H]2[C@]2(O)O[C@](NC(=O)[C@@H]3C=C4c5cccc6[nH]c(Br)c(c56)CC4N(C)C3)(C(C)C)C(=O)N12 (some centres not stated)	11
C/C=C(\CS(=O)(=O)c1ccccc1)S(=O)(=O)c1ccccc1	6.39
Cc1nc2sccn2c(=O)c1CCN1CCC(=C(c2ccccc2)c2ccc(F)cc2)CC1	11.5
O=S1(=O)C=C(Sc2nc3ccccc3s2)c2ccccc21	2.35
N#Cc1cc2sc3nnc(-c4ccncc4)n3c2cc1C#N	13.7
CN(C)CCCN1c2ccccc2Sc2ccc(Cl)cc21	8.47
Oc1ccc(Nc2nc(-c3ccc(O)cc3)cs2)cc1	11.6
